Results taken from PubChem BioAssay AID212 (DTP/NCI, 2004).
Where “and” joins values, the source holds several entries; their conditions need not be identical. Identical values can stand only once. Records with an inconclusive call do not appear.

Tested on: BDF1 mice, colon carcinoma 38 sc, T/C %
Assay: NCI In Vivo Anticancer Drug Screen. Data for tumor model Colon Carcinoma 38 (subcutaneous) in B6D2F1 (BDF1) mice
Conditions: endpoint: median tumor weight (est.), schedule: Q07DX002 (ip), higher = larger tumour
How it was run: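 Mice with transplanted tumors are treated with compound or vehicle. Survival or tumor size is then measured in both groups. The ratio of treated to control gives the reported figure.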

[1] = dose: 12.5 mg/kg/injection, vehicle: saline with Tween-80
[2] = dose: 25.0 mg/kg/injection, vehicle: saline with Tween-80
[3] = dose: 50.0 mg/kg/injection, vehicle: saline with Tween-80
[4] = dose: 100.0 mg/kg/injection, vehicle: saline with Tween-80
[5] = dose: 200.0 mg/kg/injection, vehicle: saline with Tween-80

SMILES: N=C(N)c1ccc(/C=C/c2ccc(C(=N)N)cc2O)cc1
- T/C (dose: 6.25 mg/kg/injection, vehicle: water): 86 % of control
- T/C (dose: 12.5 mg/kg/injection, vehicle: water): 95 % of control
- T/C (dose: 25.0 mg/kg/injection, vehicle: water): 112 % of control
- T/C (dose: 100.0 mg/kg/injection, vehicle: water): 108 % of control

SMILES: COc1ccc(OC)c(/C=C/c2ccnc3ccccc23)c1
- T/C [1]: 152 % of control
- T/C [2]: 101 % of control
- T/C [3]: 86 % of control
- T/C [4]: 116 % of control
- T/C [5]: 111 % of control
- T/C (dose: 400.0 mg/kg/injection, vehicle: saline with Tween-80): 75 % of control

SMILES: [Cl][Mn][Cl]
- T/C (dose: 3.0 mg/kg/injection, vehicle: saline): 118 % of control
- T/C (dose: 4.0 mg/kg/injection, vehicle: saline): 97 % of control
- T/C (dose: 6.0 mg/kg/injection, vehicle: saline): 92 % of control
- T/C (dose: 8.0 mg/kg/injection, vehicle: saline): 81 % of control
- T/C (dose: 12.0 mg/kg/injection, vehicle: saline): 119 % of control
- T/C (dose: 32.0 mg/kg/injection, vehicle: saline): 95 % of control and 96 % of control
- T/C (dose: 48.0 mg/kg/injection, vehicle: saline): 119 % of control
- T/C (dose: 64.0 mg/kg/injection, vehicle: saline): 75 % of control
- T/C (dose: 96.0 mg/kg/injection, vehicle: saline): 115 % of control
- T/C (dose: 128.0 mg/kg/injection, vehicle: saline): 78 % of control

SMILES: Cc1cc(C)c(-c2cc(O)c(C)cc2O)c(C)c1
- T/C (dose: 12.5 mg/kg/injection, vehicle: Klucel (hydroxypropylcellulose) (HPC)): 83 % of control
- T/C (dose: 50.0 mg/kg/injection, vehicle: Klucel (hydroxypropylcellulose) (HPC)): 82 % of control

SMILES: COc1cccc2c1C(=O)c1c(O)c3c(c(O)c1C2=O)C[C@@](O)(/C(C)=N/NC(=O)c1ccccc1)C[C@@H]3OC1CC(N)C(O)C(C)O1 (stereo partly specified)
- T/C (dose: 2.0 mg/kg/injection, vehicle: water): 100 % of control
- T/C (dose: 4.0 mg/kg/injection, vehicle: water): 107 % of control
- T/C (dose: 8.0 mg/kg/injection, vehicle: water): 102 % of control
- T/C (dose: 16.0 mg/kg/injection, vehicle: water): 16 % of control

SMILES: COP12(OCCO1)SC(C(F)(F)F)=C(C(F)(F)F)S2
- T/C (dose: 0.75 mg/kg/injection, vehicle: saline with Tween-80): 81 % of control
- T/C (dose: 1.5 mg/kg/injection, vehicle: saline with Tween-80): 92 % of control
- T/C (dose: 3.0 mg/kg/injection, vehicle: saline with Tween-80): 84 % of control
- T/C (dose: 6.0 mg/kg/injection, vehicle: saline with Tween-80): 83 % of control
- T/C (dose: 12.0 mg/kg/injection, vehicle: saline with Tween-80): 75 % of control

SMILES: Cc1ccccc1N(CC1CO1)CC1CO1 (stereo unspecified)
- T/C [2]: 81 % of control
- T/C [3]: 104 % of control
- T/C [4]: 57 % of control
- T/C [5]: 123 % of control
- T/C (dose: 200.0 mg/kg/injection, vehicle: saline): 154 % of control
- T/C (dose: 800.0 mg/kg/injection, vehicle: saline): 89 % of control

SMILES: O=C(O)/C=C/C(=O)N1Cc2cc3ccccc3nc2C1
- T/C [1]: 84 % of control
- T/C [3]: 89 % of control
- T/C [4]: 173 % of control
- T/C [5]: 104 % of control
